According to patent US20240246941A1, “SUBSTITUTED 4-(3-AMINOPROP-1-YL)AMINOQUINOLINE ANALOGS AS MODULATORS OF MELANOMA-ASSOCIATED ANTIGEN 11 UBIQUITIN LIGASE” (ST. JUDE CHILDREN'S RESEARCH HOSPITAL, INC., priority 2020, published 2024):

target: interaction between GST-MAGEA11 MHD and FAM-PCF11_4 peptide (MAGE-A11:PCF11) (Homo sapiens (Human), UniProt P43364); experiment: TR-FRET dose response competition assay for disruption of MAGE-A11:PCF11 binding; settings: Dose response TR-FRET screening of nine scaffold groups against MAGE-A11:PCF11; read-out: consensus IC50
Outline: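 Competition TR-FRET at room temperature in 50 mM Tris pH 7.5, 20 mM MgCl2, 0.1 mg/ml BSA, 1 mM DTT: final 5 nM GST-MAGEA11 MHD, 5 nM Tb-anti-GST, 200 nM FAM-PCF11_4, 90 min. Ratio 520/490 nm converted to % inhibition; IC50 from sigmoidal fit.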

Sequence of interaction between GST-MAGEA11 MHD and FAM-PCF11_4 peptide (MAGE-A11:PCF11) (P43364 218-429): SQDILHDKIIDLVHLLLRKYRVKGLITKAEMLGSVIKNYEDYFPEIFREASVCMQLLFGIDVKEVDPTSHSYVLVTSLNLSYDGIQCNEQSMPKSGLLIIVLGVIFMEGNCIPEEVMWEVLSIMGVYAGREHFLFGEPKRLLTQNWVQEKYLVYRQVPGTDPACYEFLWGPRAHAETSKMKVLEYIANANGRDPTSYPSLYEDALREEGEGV

`COc1cccc(F)c1CNCCCNc1ccnc2cc(C(F)(F)F)ccc12` [SJ000521051-1] and `FC(F)(F)c1ccc2c(NCCCNCc3ccc4c(c3)OCO4)ccnc2c1` [SJ000361106-1] are the same in IC50: 69.9 µM for the first, 69.9 µM for the second.

`FC(F)(F)c1ccccc1CNCCCNc1ccnc2cc(Cl)ccc12` [SJ000520908-2] and `Clc1ccc2c(NCCCNCc3ccccc3)ccnc2c1` [SJ000361100-1] are the same in IC50: 69.9 µM for the first, 69.9 µM for the second.

`COCCCn1c(-c2cc(Br)ccc2F)nc2c1c(=O)[nH]c(=O)n2Cc1ccccc1` [SJ000411586-1] and `COCCCn1c(-c2ccc(C#N)cc2)nc2c1c(=O)[nH]c(=O)n2Cc1ccccc1` [SJ000420075-1] are the same in IC50: 69.9 µM for the first, 69.9 µM for the second.

`COc1ccc(-c2cc3ncn(CC(=O)NCc4ccccc4F)c(=O)c3s2)cc1` [SJ000449696-1] and `COc1ccccc1CNC(=O)Cn1cnc2cc(-c3ccc(Cl)cc3)sc2c1=O` [SJ000444040-1] are the same in IC50: 69.9 µM for the first, 69.9 µM for the second.

`O=C1c2ccccc2NC(c2ccc(Cl)cc2Cl)N1Cc1ccccc1` (stereo not drawn) [SJ000551164-1] and `CCOc1cc(C2Nc3ccccc3C(=O)N2Cc2ccccc2)ccc1O` (stereo not drawn) [SJ000288432-1] are the same in IC50: 69.9 µM for the first, 69.9 µM for the second.

`CCCn1c(=O)c2nc(-c3ccccc3)[nH]c2n(CCC)c1=O` [SJ000832251-1] and `CCCn1c(-c2ccc(C#N)cc2)nc2c1c(=O)[nH]c(=O)n2Cc1ccccc1` [SJ000383781-1] are within 1.5-fold of each other in IC50: 73 µM for the first, 69.9 µM for the second.

`CC(=O)N(C1=C(Cl)C(=O)c2ccccc2C1=O)c1ccc(Cl)cc1` [SJ000296883-2] and `CC(=O)N(C1=C(Cl)C(=O)c2ccccc2C1=O)c1ccc(F)cc1` [SJ000024947-1] are the same in IC50: 69.9 µM for the first, 69.9 µM for the second.

First: CC1CN(c2oc(-c3ccc([N+](=O)[O-])cc3)nc2C#N)CC(C)O1 (stereo not drawn) [SJ000478204-1]
Second: Cc1ccc(S(=O)(=O)c2nc(-c3cccc([N+](=O)[O-])c3)oc2N2CCOCC2)cc1 [SJ000027482-1]
The IC50 of the first is 7.3-fold higher: 69.9 µM for the first, 9.54 µM for the second.

First: CC(C)CCc1ccc2c(NCCCNCc3cccc4c3OCO4)ccnc2c1 [SJ000311248-1]
Second: COc1ccc(F)cc1CNCCCNc1ccnc2cc(CCC(C)C)ccc12 [SJ000311249-1]
The IC50 of the first is 2.5-fold lower: 27.7 µM for the first, 69.9 µM for the second.

Going from `c1cc(CNCCCNc2ccnc3cc(-c4ccc5c(c4)OCO5)ccc23)c2c(c1)OCO2` [SJ000311292-1] to `N#Cc1ccc(Cc2ccc3c(NCCCNCc4cccc5c4OCO5)ccnc3c2)cc1` [SJ000311304-1], the IC50 rises from 30.5 µM to 66 µM (2.2-fold). The first is the more potent here.

`CC(C)NC(=O)NC(=O)Cn1cnc2cc(-c3ccccc3)sc2c1=O` [SJ000425388-1] and `COC(=O)Cn1cnc2cc(-c3ccc(Cl)cc3)sc2c1=O` [SJ000418500-1] are the same in IC50: 69.9 µM for the first, 69.9 µM for the second.

Going from `COc1cccc(CNCCCNc2ccnc3cc(-c4ccccc4)ccc23)c1O` [SJ000311283-1] to `COc1cccc(CNCCCNc2ccnc3cc(-c4cccc5ccccc45)ccc23)c1O` [SJ000311275-1], the IC50 falls from 24.1 µM to 16 µM (1.5-fold).

`COc1ccc(C2Nc3ccccc3C(=O)N2Cc2ccccc2)cc1Cn1cc([N+](=O)[O-])cn1` (stereo not drawn) [SJ000288433-1] and `COc1ccc(C2Nc3ccccc3C(=O)N2Cc2ccc(C)cc2)cc1` (stereo not drawn) [SJ000510743-1] are the same in IC50: 69.9 µM for the first, 69.9 µM for the second.

First: O=C1C(Cl)=C(NC(=O)C(F)(F)F)C(=O)c2ccccc21 [SJ000024928-1]
Second: CC(C)C(NC1=C(Cl)C(=O)c2ccccc2C1=O)C(=O)O (stereo not drawn) [SJ000244609-2]
The IC50 of the first is 59-fold lower: 9.87 µM for the first, 587 µM for the second. The first is the more potent here.

`CCCCn1c(=O)[nH]c(=O)c2c1nc(-c1ccc(OCC(C)C)c(OCC)c1)n2CC` [SJ000378903-1] and `CCCn1c(=O)[nH]c(=O)c2c1nc(-c1cccc(OC)c1)n2CCOC` [SJ000427207-1] are the same in IC50: 69.9 µM for the first, 69.9 µM for the second.

`Cc1ccc(CNC(=O)Cn2cnc3cc(-c4ccc(Cl)cc4)sc3c2=O)cc1` [SJ000445272-1] and `COc1ccc(CNC(=O)Cn2cnc3cc(-c4ccc(Cl)cc4)sc3c2=O)cc1` [SJ000457620-1] are the same in IC50: 69.9 µM for the first, 69.9 µM for the second.

`Cn1c(-c2cc(Cl)ccc2O)nc2c1c(=O)[nH]c(=O)n2Cc1ccccc1` [SJ000386224-1] and `CCCn1c(-c2cccc([N+](=O)[O-])c2)nc2c1c(=O)[nH]c(=O)n2Cc1ccccc1` [SJ000376601-1] are the same in IC50: 69.9 µM for the first, 69.9 µM for the second.

`CCCn1c(=O)[nH]c(=O)c2c1nc(-c1ccc(OC(F)(F)C(F)C(F)(F)F)cc1)n2CCOC` (stereo not drawn) [SJ000379374-1] and `CCCn1c(=O)[nH]c(=O)c2c1nc(-c1ccc(Cl)cc1)n2CCOC` [SJ000424475-1] are the same in IC50: 69.9 µM for the first, 69.9 µM for the second.

First: COc1cc(NCc2ccc3nc(N)nc(N)c3c2C)cc(OC)c1OC [SJ000574313-7]
Second: COc1ccc(Oc2ccc3c(NCCCNCc4cccc(OC)c4O)ccnc3c2)cc1 [SJ000311219-1]
The IC50 of the first is 3.1-fold lower: 9.46 µM for the first, 29 µM for the second.

`CC(=O)N(C1=C(Cl)C(=O)c2ccccc2C1=O)c1cccc(I)c1` [SJ000024931-1] and `CCc1ccc(C2=C(c3ccc([N+](=O)[O-])cc3)C(=O)OC2)cc1` [SJ000368127-1] are the same in IC50: 69.9 µM for the first, 69.9 µM for the second.

Going from `COc1cccc(CNCCCNc2ccnc3cc(-c4ccc(C(C)(C)C)cc4)ccc23)c1O` [SJ000311287-1] to `C=CCN(CC=C)C(=O)Cn1cnc2cc(-c3ccc(OC)cc3)sc2c1=O` [SJ000431447-1], the IC50 rises from 4.67 µM to 69.9 µM (15-fold). The first is the more potent here.

With `Cc1cc(C)c(C2Nc3ccccc3C(=O)N2CCCN2CCOCC2)cc1C` (stereo not drawn) [SJ000803761-1] the IC50 was 62.3 µM.

same assay, conditions: Table 5, dose response TR-FRET screening of 59 quinoline compounds against MAGE-A11:PCF11; read-out: TR-FRET IC50

Compared with `Clc1ccc2c(NCCCCN(Cc3ccccc3)Cc3ccc4[nH]ccc4c3)ccnc2c1` [SJ000520434-1], `Clc1ccc2c(NCCCN(Cc3ccccc3)Cc3c[nH]c4ccccc34)ccnc2c1` [SJ000520433-1] is higher in IC50: 23.4 µM for the first, greater than 70 µM for the second.

Going from `c1ccc(Cc2ccc3c(NCCCNCc4ccco4)ccnc3c2)cc1` [SJ000311306-2] to `COC1CCC(C(F)(F)F)C1CN(CCCCNc1ccnc2cc(Cl)ccc12)Cc1ccccc1` (stereo not drawn) [SJ000520444-1], the IC50 rises from 32.2 µM to greater than 70 µM.

`CCCCCN(CCC)CCCNc1ccnc2cc(C(F)(F)F)ccc12` [SJ000361271-1] and `CCCN(CCNc1ccnc2cc(C(F)(F)F)ccc12)Cc1ccc[nH]1` [SJ000361255-1] cannot be ordered by IC50: greater than 70 µM for the first, greater than 70 µM for the second.

Molecule `CCCN(CCCNc1c2ccc(Cl)cc2nc2ccc(OC)cc12)Cc1ccc2[nH]ccc2c1` [SJ000522732-2] has an IC50 greater than 70 µM.

same assay, conditions: Table 6, 4-aminoquinoline compounds; read-out: TR-FRET, IC50

`COc1ccc(F)cc1CNCCCNc1ccnc2cc(-c3ccc(C(F)(F)F)cc3)ccc12` [SJ000311281-01] showed an IC50 of 5.58 µM.

same assay, conditions: Table 8, representative compounds; read-out: TR-FRET IC50

Going from `COc1cccc(CNCCCNc2ccnc3cc(-c4ccc(C(C)(C)C)cc4)ccc23)c1O` [SJ000311287] to `COc1ccc(F)cc1CNCCCNc1ccnc2cc(-c3ccc(C(F)(F)F)cc3)ccc12` [SJ000311281-01], the IC50 rises from 4.67 µM to 13.4 µM (2.9-fold).

`FC(F)(F)Oc1ccc(CNCCCNc2ccnc3cc(Cl)ccc23)cc1` [SJ000521025] and `Nc1ccccc1CNCCCNc1ccnc2cc(Cl)ccc12` [SJ000523055] are the same in IC50: 69.9 µM for the first, 69.9 µM for the second.

`COc1cccc(CNCCCNc2ccnc3cc(Cc4cc(C)cc(C)c4)ccc23)c1O` [SJ000311319] and `COc1ccc(F)cc1CNCCCNc1ccnc2cc(Cc3ccccc3)ccc12` [SJ000311309] are within 1.5-fold of each other in IC50: 23.6 µM for the first, 18.3 µM for the second.

Going from `COc1ccc(OC)c2c(O)c(CN3CCCCC3C)c(C)nc12` (stereo not drawn) [SJ000280708] to `COc1cccc(Oc2ccc3c(NCCCNCc4cc(F)ccc4OC)ccnc3c2)c1` [SJ000311217], the IC50 falls from greater than 69.9 µM to 36.8 µM. The second is the more potent here.

`COc1cccc(CNCCCNc2ccnc3cc(Oc4ccc(Cl)cc4)ccc23)c1O` [SJ000311227] and `COc1cccc(CNCCCNc2ccnc3cc(C4=CC=CC5=CC=CC=CC54)ccc23)c1O` (stereo not drawn) [SJ000311275] are within 1.5-fold of each other in IC50: 20.7 µM for the first, 16 µM for the second.

`FC(F)(F)c1cc(-c2ccc3c(NCCCNCc4cccc5c4OCO5)ccnc3c2)cc(C(F)(F)F)c1` [SJ000311272] was tested, and the IC50 was 9.02 µM.

same assay, conditions: read-out: IC50 by TR-FRET for disrupting MAGE-A11:PCF11 interaction

With `COc1ccc(F)cc1CNCCCNc1ccnc2cc(-c3ccc(C(F)(F)F)cc3)ccc12` [SJ000311281-01] the IC50 was 5.58 µM.
